Assay results taken from US4087432A, “1H-imidazo(4,5-b)pyridine compounds” (Eli Lilly and Company, priority 1975, dated 1978).

Columns and labels:
Corn [1] = experiment: Postemergent injury rating, corn; type: in vivo; parameters: key: injury rating scale, 4 = death; conditions: 8 lbs/acre
Description: (§1) Various of the compounds to be employed as active agent in accordance with the present invention were evaluated for preemergent application to various species of plants. In this evaluation, a soil was prepared consisting of one part masonry sand and one part shredded top soil blended together in a cement mixer. One gallon of this soil was placed in a 25 × 35 cm. galvanized flat and was patted down with a bench brush until level. A three-row marker was used to make 21/2 cm. deep furrows in approximately two-fifths of the flat. Crop seeds consisting of four kernels of corn, five cotton seeds and five soybean seeds were placed in these furrows. A four-row template was then placed on the remaining soil and the indicated approximate numbers of each of the following seeds were planted, one species to each section: foxtail (millet), 80-100 seeds; velvetleaf (40-50 seeds); rough pigweed (150-250 seeds); and large crabgrass (100-150 seeds).
(§2) Sufficient soil was added to cover the entire flat. Thus, the weed seeds were covered to a depth of about 6 mm. and the crop seeds were covered to a depth of about 3 cm.
(§3) In assaying the effect of the composition as preemergent herbicides, a flat prepared as above, taken either on the day of planting or on the next day, was placed in a chamber equipped with a turntable and an air exhaust. The herbicidal composition, either a spray-type emulsion or a wettable powder, was applied to the flat with a modified DeVilbiss atomizer hooked to an air source. Twelve and one-half milliliters of the composition under test were applied to each flat either on the day of planting or the succeeding day. Injury ratings and observations as to type of injury were made eleven to twelve days after treatment. The injury rating scale used was as follows:
(§4) 4--death When more than one determination was carried out at a given rate, an average value was calculated for the injury rating. Each compound evaluated was formulated as a spray by one of the following procedures. In one method the particular compound was wetted by grinding in a mortar with one part of polyoxyethylene sorbitan monolaurate. Five hundred parts of water were added slowly to the resultant creamy paste to give an aqueous dispersion with a surfactant concentration of 0.2 percent. This dispersion was entirely satisfactory for spray application. In a second procedure the compound was dissolved in one volume of acetone, and the acetone solution was diluted with nineteen volumes of water containing 0.1 percent of polyoxyethylene sorbitan monolaurate.
(§5) Representative compounds of the present invention were evaluated for postemergent application to plants including corn and several weed species. The evaluation was carried out in accordance with the procedures of Examples 49-52 except that the test solutions were applied about 9-12 days after the preparation and seeding of the flats.

Crabgrass = experiment: Postemergent injury rating, crabgrass; type: in vivo, large crabgrass; parameters: key: injury rating scale, 4 = death; conditions: 8 lbs/acre
Description: as §1, §2, §3, §4, §5

Pigweed [2] = experiment: Postemergent injury rating, pigweed; type: in vivo, rough pigweed; parameters: key: injury rating scale, 4 = death; conditions: 8 lbs/acre
Description: as §1, §2, §3, §4, §5

Foxtail = experiment: Postemergent injury rating, foxtail; type: in vivo, foxtail (millet); parameters: key: injury rating scale, 4 = death; conditions: 8 lbs/acre
Description: as §1, §2, §3, §4, §5

Velvet Leaf [3] = experiment: Postemergent injury rating, velvetleaf; type: in vivo; conditions: 8 lbs/acre
Description: as §1, §2, §3, §4, §5

Jimsonweed = experiment: General herbicidal effect alone/in combination, jimsonweed; type: in vivo; parameters: key: 0-10 scale: 0 = no injury, 10 = death; conditions: alone
Description: as §1, §2, §3, §4
(§6) 6-Chloro-1-hydroxy-2-(trifluoromethyl)-1H-imidazo(4,5-b)pyridine was evaluated in combination with 2-chloro-4-ethylamino-6-isopropylamino-s-triazine and separately in combination with 2-chloro-2',6'-diethyl-N-(methoxymethyl)acetanilide for the control of plants. The evaluations were conducted as described in Examples 49-52, except that the rates of compound differed and the species were different. General herbicidal effect was rated on a scale of 0-10, with 0 = no injury and 10 = death. Observations were also made for the following other specific phytotoxic effects.

Lambs Quarter = experiment: General herbicidal effect alone/in combination, lambsquarter; type: in vivo; parameters: key: 0-10 scale: 0 = no injury, 10 = death; conditions: alone
Description: as §1, §2, §3, §4, §6

Velvet Leaf [4] = experiment: General herbicidal effect alone/in combination, velvetleaf; type: in vivo; parameters: key: 0-10 scale: 0 = no injury, 10 = death; conditions: alone
Description: as §1, §2, §3, §4, §6

Corn [5] = experiment: General herbicidal effect alone/in combination, corn (first Corn column); type: in vivo; parameters: key: 0-10 scale: 0 = no injury, 10 = death; conditions: alone
Description: as §1, §2, §3, §4, §6

Ragweed = experiment: General herbicidal effect alone/in combination, ragweed; type: in vivo; parameters: key: 0-10 scale: 0 = no injury, 10 = death; conditions: alone
Description: as §1, §2, §3, §4, §6

Pigweed [6] = experiment: General herbicidal effect alone/in combination, pigweed; type: in vivo; parameters: key: 0-10 scale: 0 = no injury, 10 = death; conditions: alone
Description: as §1, §2, §3, §4, §6

Morning glory = experiment: General herbicidal effect alone/in combination, morning glory; type: in vivo; parameters: key: 0-10 scale: 0 = no injury, 10 = death; conditions: alone
Description: as §1, §2, §3, §4, §6

Johnson Grass = experiment: General herbicidal effect alone/in combination, Johnson grass; type: in vivo; conditions: alone
Description: as §1, §2, §3, §4, §6

Sorghum = experiment: General herbicidal effect alone/in combination, sorghum; type: in vivo; parameters: key: 0-10 scale: 0 = no injury, 10 = death; conditions: alone
Description: as §1, §2, §3, §4, §6

Foxtail Millet = experiment: General herbicidal effect alone/in combination, foxtail millet; type: in vivo; parameters: key: 0-10 scale: 0 = no injury, 10 = death; conditions: alone
Description: as §1, §2, §3, §4, §6

Corn [7] = experiment: General herbicidal effect alone/in combination, corn (second Corn column); type: in vivo; parameters: key: 0-10 scale: 0 = no injury, 10 = death; conditions: alone
Description: as §1, §2, §3, §4, §6

Large Crabgrass = experiment: General herbicidal effect alone/in combination, large crabgrass; type: in vivo; parameters: key: 0-10 scale: 0 = no injury, 10 = death; conditions: alone
Description: as §1, §2, §3, §4, §6

Rice = experiment: General herbicidal effect alone/in combination, rice; type: in vivo; parameters: key: 0-10 scale: 0 = no injury, 10 = death; conditions: alone
Description: as §1, §2, §3, §4, §6

Barnyard Grass = experiment: General herbicidal effect alone/in combination, barnyard grass; type: in vivo; parameters: key: 0-10 scale: 0 = no injury, 10 = death; conditions: alone
Description: as §1, §2, §3, §4, §6

Structure (SMILES): Cc1cnc2nc(C(F)(F)F)n(O)c2c1 [6-methyl-1-hydroxy-2-(trifluoromethyl)-1H-imidazo(4,5-b)pyridine]
- Injury Rating, Corn (Corn [1]): 1
- Injury Rating, Crabgrass (Crabgrass): 3
- Injury Rating, Pigweed (Pigweed [2]): 3
- Injury Rating, Foxtail (Foxtail): 3
- Injury Rating, Velvet Leaf (Velvet Leaf [3]): 1

Structure (SMILES): CCNc1nc(Cl)nc(NC(C)C)n1 [B, 2-chloro-4-ethylamino-6-isopropylamino-s-triazine]
- herbicidal effect, Jimsonweed (Jimsonweed; 0.25 lbs/A): 9BS
- herbicidal effect, Jimsonweed (Jimsonweed; 0.5 lbs/A): 9BS
- herbicidal effect, Jimsonweed (Jimsonweed; 1.0 lbs/A): 9BS
- herbicidal effect, Jimsonweed (Jimsonweed; 2.0 lbs/A): 9BS
- herbicidal effect, Lambs Quarter (Lambs Quarter; 0.25 lbs/A): 9BS
- herbicidal effect, Lambs Quarter (Lambs Quarter; 0.5 lbs/A): 9BS
- herbicidal effect, Lambs Quarter (Lambs Quarter; 1.0 lbs/A): 9.5BS
- herbicidal effect, Lambs Quarter (Lambs Quarter; 2.0 lbs/A): 9.5BS
- herbicidal effect, Velvet leaf (Velvet Leaf [4]; 0.25 lbs/A): 3S
- herbicidal effect, Velvet leaf (Velvet Leaf [4]; 0.5 lbs/A): 3S
- herbicidal effect, Velvet leaf (Velvet Leaf [4]; 1.0 lbs/A): 7BS
- herbicidal effect, Velvet leaf (Velvet Leaf [4]; 2.0 lbs/A): 10D
- herbicidal effect, Corn (Corn [5]; 0.25 lbs/A): 0
- herbicidal effect, Corn (Corn [5]; 0.5 lbs/A): 0
- herbicidal effect, Corn (Corn [5]; 1.0 lbs/A): 0
- herbicidal effect, Corn (Corn [5]; 2.0 lbs/A): 0
- herbicidal effect, Ragweed (Ragweed; 0.25 lbs/A): 5S
- herbicidal effect, Ragweed (Ragweed; 0.5 lbs/A): 7SB
- herbicidal effect, Ragweed (Ragweed; 1.0 lbs/A): 8BS
- herbicidal effect, Ragweed (Ragweed; 2.0 lbs/A): 10D
- herbicidal effect, Pigweed (Pigweed [6]; 0.25 lbs/A): 9BS
- herbicidal effect, Pigweed (Pigweed [6]; 0.5 lbs/A): 10D
- herbicidal effect, Pigweed (Pigweed [6]; 1.0 lbs/A): 10D
- herbicidal effect, Pigweed (Pigweed [6]; 2.0 lbs/A): 10D
- herbicidal effect, Morning glory (Morning glory; 0.25 lbs/A): 8BS
- herbicidal effect, Morning glory (Morning glory; 0.5 lbs/A): 9BS
- herbicidal effect, Morning glory (Morning glory; 1.0 lbs/A): 10D
- herbicidal effect, Morning glory (Morning glory; 2.0 lbs/A): 10D
- herbicidal effect, Johnson Grass (Johnson Grass; 0.25 lbs/A): 3S
- herbicidal effect, Johnson Grass (Johnson Grass; 0.5 lbs/A): 0
- herbicidal effect, Johnson Grass (Johnson Grass; 1.0 lbs/A): 0
- herbicidal effect, Johnson Grass (Johnson Grass; 2.0 lbs/A): 2S
- herbicidal effect, Sorghum (Sorghum; 0.25 lbs/A): 0
- herbicidal effect, Sorghum (Sorghum; 0.5 lbs/A): 0
- herbicidal effect, Sorghum (Sorghum; 1.0 lbs/A): 1B
- herbicidal effect, Sorghum (Sorghum; 2.0 lbs/A): 2B
- herbicidal effect, Foxtail Millet (Foxtail Millet; 0.25 lbs/A): 0
- herbicidal effect, Foxtail Millet (Foxtail Millet; 0.5 lbs/A): 0
- herbicidal effect, Foxtail Millet (Foxtail Millet; 1.0 lbs/A): 4SB
- herbicidal effect, Foxtail Millet (Foxtail Millet; 2.0 lbs/A): 5SB
- herbicidal effect, Corn (Corn [7]; 0.25 lbs/A): 0
- herbicidal effect, Corn (Corn [7]; 0.5 lbs/A): 0
- herbicidal effect, Corn (Corn [7]; 1.0 lbs/A): 0
- herbicidal effect, Corn (Corn [7]; 2.0 lbs/A): 0
- herbicidal effect, Large Crabgrass (Large Crabgrass; 0.25 lbs/A): 0
- herbicidal effect, Large Crabgrass (Large Crabgrass; 0.5 lbs/A): 2S
- herbicidal effect, Large Crabgrass (Large Crabgrass; 1.0 lbs/A): 5S
- herbicidal effect, Large Crabgrass (Large Crabgrass; 2.0 lbs/A): 6BS
- herbicidal effect, Rice (Rice; 0.25 lbs/A): 4B
- herbicidal effect, Rice (Rice; 0.5 lbs/A): 4B
- herbicidal effect, Rice (Rice; 1.0 lbs/A): 7B
- herbicidal effect, Rice (Rice; 2.0 lbs/A): 8B
- herbicidal effect, Barnyard Grass (Barnyard Grass; 0.25 lbs/A): 2S
- herbicidal effect, Barnyard Grass (Barnyard Grass; 0.5 lbs/A): 5SB
- herbicidal effect, Barnyard Grass (Barnyard Grass; 1.0 lbs/A): 4SB
- herbicidal effect, Barnyard Grass (Barnyard Grass; 2.0 lbs/A): 8BS

Structure (SMILES): CCc1cccc(CC)c1N(COC)C(=O)CCl [C, 2-chloro-2',6'-diethyl-N-(methoxymethyl)acetanilide]
- herbicidal effect, Jimsonweed (Jimsonweed; 0.5 lbs/A): 0
- herbicidal effect, Jimsonweed (Jimsonweed; 1.0 lbs/A): 3S
- herbicidal effect, Jimsonweed (Jimsonweed; 2.0 lbs/A): 4S
- herbicidal effect, Jimsonweed (Jimsonweed; 4.0 lbs/A): 5S
- herbicidal effect, Lambs Quarter (Lambs Quarter; 1.0 lbs/A): 5S
- herbicidal effect, Lambs Quarter (Lambs Quarter; 2.0 lbs/A): 10N
- herbicidal effect, Lambs Quarter (Lambs Quarter; 4.0 lbs/A): 10N
- herbicidal effect, Velvet leaf (Velvet Leaf [4]; 0.5 lbs/A): 2S
- herbicidal effect, Velvet leaf (Velvet Leaf [4]; 1.0 lbs/A): 3S
- herbicidal effect, Velvet leaf (Velvet Leaf [4]; 2.0 lbs/A): 6S
- herbicidal effect, Velvet leaf (Velvet Leaf [4]; 4.0 lbs/A): 3S
- herbicidal effect, Corn (Corn [5]; 0.5 lbs/A): 0
- herbicidal effect, Corn (Corn [5]; 1.0 lbs/A): 0
- herbicidal effect, Corn (Corn [5]; 2.0 lbs/A): 2S
- herbicidal effect, Corn (Corn [5]; 4.0 lbs/A): 2S
- herbicidal effect, Ragweed (Ragweed; 0.5 lbs/A): 0
- herbicidal effect, Ragweed (Ragweed; 1.0 lbs/A): 5S
- herbicidal effect, Ragweed (Ragweed; 2.0 lbs/A): 7S
- herbicidal effect, Ragweed (Ragweed; 4.0 lbs/A): 8SR
- herbicidal effect, Pigweed (Pigweed [6]; 0.5 lbs/A): 7S
- herbicidal effect, Pigweed (Pigweed [6]; 1.0 lbs/A): 8SR
- herbicidal effect, Pigweed (Pigweed [6]; 2.0 lbs/A): 10N
- herbicidal effect, Pigweed (Pigweed [6]; 4.0 lbs/A): 10N
- herbicidal effect, Morning glory (Morning glory; 0.5 lbs/A): 0
- herbicidal effect, Morning glory (Morning glory; 1.0 lbs/A): 2S
- herbicidal effect, Morning glory (Morning glory; 2.0 lbs/A): 2SF
- herbicidal effect, Morning glory (Morning glory; 4.0 lbs/A): 3SF
- herbicidal effect, Johnson Grass (Johnson Grass; 0.5 lbs/A): 9RS
- herbicidal effect, Johnson Grass (Johnson Grass; 1.0 lbs/A): 9RS
- herbicidal effect, Johnson Grass (Johnson Grass; 2.0 lbs/A): 9.5RS
- herbicidal effect, Johnson Grass (Johnson Grass; 4.0 lbs/A): 10N
- herbicidal effect, Sorghum (Sorghum; 0.5 lbs/A): 3SF
- herbicidal effect, Sorghum (Sorghum; 1.0 lbs/A): 4SF
- herbicidal effect, Sorghum (Sorghum; 2.0 lbs/A): 8SF
- herbicidal effect, Sorghum (Sorghum; 4.0 lbs/A): 8SFR
- herbicidal effect, Foxtail Millet (Foxtail Millet; 0.5 lbs/A): 9SBR
- herbicidal effect, Foxtail Millet (Foxtail Millet; 1.0 lbs/A): 9RSB
- herbicidal effect, Foxtail Millet (Foxtail Millet; 2.0 lbs/A): 9.5RSB
- herbicidal effect, Foxtail Millet (Foxtail Millet; 4.0 lbs/A): 10D
- herbicidal effect, Corn (Corn [7]; 0.5 lbs/A): 0
- herbicidal effect, Corn (Corn [7]; 1.0 lbs/A): 0
- herbicidal effect, Corn (Corn [7]; 2.0 lbs/A): 1SB
- herbicidal effect, Corn (Corn [7]; 4.0 lbs/A): 2S
- herbicidal effect, Large Crabgrass (Large Crabgrass; 0.5 lbs/A): 8RS
- herbicidal effect, Large Crabgrass (Large Crabgrass; 1.0 lbs/A): 9RS
- herbicidal effect, Large Crabgrass (Large Crabgrass; 2.0 lbs/A): 10N
- herbicidal effect, Large Crabgrass (Large Crabgrass; 4.0 lbs/A): 10N
- herbicidal effect, Rice (Rice; 0.5 lbs/A): 0
- herbicidal effect, Rice (Rice; 1.0 lbs/A): 9RS
- herbicidal effect, Rice (Rice; 2.0 lbs/A): 10N
- herbicidal effect, Rice (Rice; 4.0 lbs/A): 10N
- herbicidal effect, Barnyard Grass (Barnyard Grass; 0.5 lbs/A): 5SR
- herbicidal effect, Barnyard Grass (Barnyard Grass; 1.0 lbs/A): 8S
- herbicidal effect, Barnyard Grass (Barnyard Grass; 2.0 lbs/A): 8RSF
- herbicidal effect, Barnyard Grass (Barnyard Grass; 4.0 lbs/A): 9.5RS
